Columns and labels:
[1] = DRUGMATRIX: Sodium/nucleoside co-transporter radioligand binding (ligand: nitrobenzylthioinosine); format: cell membranes, Cavia porcellus, Dunkin-Hartley, Cerebral cortex, Membrane; conditions: Not Active = under 50% inhibition at 10 µM
[2] = DRUGMATRIX: Calcium Channel Type L, Dihydropyridine radioligand binding (ligand: [3H] Nitrendipine); format: cell membranes, Rattus norvegicus, Wistar, Cerebral cortex, Membrane; conditions: Not Active = under 50% inhibition at 10 µM
[3] = biological target: T1, Polyunsaturated fatty acid lipoxygenase ALOX15 (Oryctolagus cuniculus, UniProt P12530); assay: biochemical; format: tissue-based, Reticulocytes;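 further: inhibition of 15-lipoxygenase enzyme activity measured with linoleic acid as the substrate; in other assays of this panel Not Active means under 50% inhibition at 10 µM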
T1 sequence (P12530 whole entry): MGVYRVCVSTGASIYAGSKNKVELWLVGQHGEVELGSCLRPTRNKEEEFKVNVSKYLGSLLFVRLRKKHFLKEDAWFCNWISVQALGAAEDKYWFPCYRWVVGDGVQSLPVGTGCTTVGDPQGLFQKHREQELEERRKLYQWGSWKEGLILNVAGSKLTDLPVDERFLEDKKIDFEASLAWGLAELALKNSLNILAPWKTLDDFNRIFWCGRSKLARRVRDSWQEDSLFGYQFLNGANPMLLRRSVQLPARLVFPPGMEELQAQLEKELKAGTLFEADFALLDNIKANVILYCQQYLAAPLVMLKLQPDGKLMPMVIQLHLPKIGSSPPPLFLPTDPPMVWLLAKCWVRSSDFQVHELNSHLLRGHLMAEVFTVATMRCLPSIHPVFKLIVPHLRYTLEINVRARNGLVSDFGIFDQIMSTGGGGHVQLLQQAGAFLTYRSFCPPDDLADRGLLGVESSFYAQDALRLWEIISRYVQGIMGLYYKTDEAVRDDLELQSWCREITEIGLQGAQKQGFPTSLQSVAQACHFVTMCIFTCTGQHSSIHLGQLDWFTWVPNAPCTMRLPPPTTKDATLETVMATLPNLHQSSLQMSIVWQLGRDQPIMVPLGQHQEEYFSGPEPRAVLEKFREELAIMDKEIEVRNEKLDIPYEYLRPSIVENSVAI

[4] = biological target: T2, Neuropeptide Y receptor type 1 (Homo sapiens, UniProt P25929); format: cell membranes, Membrane; conditions: sk-n-mc; further: in other assays of this panel Not Active means under 50% inhibition at 10 µM
T2 sequence (P25929 whole entry): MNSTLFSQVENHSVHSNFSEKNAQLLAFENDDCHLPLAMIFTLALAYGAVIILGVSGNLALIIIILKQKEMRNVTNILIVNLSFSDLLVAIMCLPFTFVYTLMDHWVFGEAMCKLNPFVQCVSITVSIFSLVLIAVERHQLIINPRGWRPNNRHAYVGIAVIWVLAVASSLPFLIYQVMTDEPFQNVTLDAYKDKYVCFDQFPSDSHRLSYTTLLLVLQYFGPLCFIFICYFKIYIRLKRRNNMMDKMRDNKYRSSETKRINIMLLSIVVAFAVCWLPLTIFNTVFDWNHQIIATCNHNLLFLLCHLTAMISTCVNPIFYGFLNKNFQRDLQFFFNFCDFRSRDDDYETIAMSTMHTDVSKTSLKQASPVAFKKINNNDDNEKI

[5] = DRUGMATRIX: Phorbol Ester radioligand binding (ligand: [3H] PDBu); format: cell membranes, Mus musculus, ICR, Brain, Membrane; conditions: Not Active = under 50% inhibition at 10 µM
[6] = DRUGMATRIX: Phosphodiesterase PDE3 enzyme inhibition (substrate: [3H]cAMP + cAMP); format: tissue-based, Homo sapiens; conditions: platelet; Not Active = under 50% inhibition at 10 µM
[7] = DRUGMATRIX: Phosphodiesterase PDE4 enzyme inhibition (substrate: [3H]cAMP + cAMP); conditions: u-937; Not Active = under 50% inhibition at 10 µM

With `CC[C@@H](CO)NC(=O)[C@@H]1C=C2c3cccc4[nH]cc(c34)C[C@H]2N(C)C1` [METHYLERGONOVINE] the IC50 [1] was “Not Active”, the Ki [1] was “Not Active” and the IC50 [2] was “Not Active”. For the same compound, the Ki [2] was “Not Active”, the IC50 ([3]; reticulocytes) was “Not Active” and the IC50 [4] was “Not Active”. The IC50 [5] was “Not Active”, the Ki [5] was “Not Active” and the IC50 [6] was “Not Active”. The Ki [6] was “Not Active”, the IC50 [7] was “Not Active” and the Ki [7] was “Not Active”.
In the case of `COc1nc(C)nc(Cl)c1NC1=NCCN1` [MOXONIDINE], the IC50 [1] is reported as “Not Active”, the Ki [1] is reported as “Not Active” and the IC50 [2] is reported as “Not Active”. For the same compound, the Ki [2] was “Not Active”, the IC50 ([3]; reticulocytes) was “Not Active” and the IC50 [4] was “Not Active”. For the same compound, the IC50 [5] was “Not Active”, the Ki [5] was “Not Active” and the IC50 [6] was “Not Active”. The Ki [6] was “Not Active”, the IC50 [7] was “Not Active” and the Ki [7] was “Not Active”.
With `COc1c(C)c2c(c(O)c1C/C=C(\C)CCC(=O)O)C(=O)OC2` [MYCOPHENOLIC ACID] the IC50 [1] was “Not Active”, the Ki [1] was “Not Active” and the IC50 [2] was “Not Active”. For the same compound, the Ki [2] was “Not Active”, the IC50 ([3]; reticulocytes) was “Not Active” and the IC50 [4] was “Not Active”. The IC50 [5] was “Not Active”, the Ki [5] was “Not Active” and the IC50 [6] was “Not Active”. The Ki [6] was “Not Active”, the IC50 [7] was “Not Active” and the Ki [7] was “Not Active”.
For `O=c1ncn2nc(Sc3ccc(F)cc3F)ccc2c1-c1c(Cl)cccc1Cl` [NEFLAMAPIMOD], the IC50 [1] was “Not Active”, the Ki [1] was “Not Active” and the IC50 ([2]; read-out: IC50) was 38.9 µM. The Ki ([2]; read-out: Ki) was 25 µM, the IC50 ([3]; reticulocytes) was “Not Active” and the IC50 [4] was “Not Active”. For the same compound, the IC50 [5] was “Not Active”, the Ki [5] was “Not Active” and the IC50 [6] was “Not Active”. For the same compound, the Ki [6] was “Not Active”, the IC50 [7] was “Not Active” and the Ki [7] was “Not Active”.
For `CN1CCN(CCCN2c3ccccc3Sc3ccc(Cl)cc32)CC1` [PROCHLORPERAZINE], the IC50 ([3]; reticulocytes) was “Not Active” and the IC50 [4] was “Not Active”.
For `CO[C@H]1/C=C/O[C@@]2(C)Oc3c(C)c(O)c4c(O)c(c(/C=N/N5CCN(C)CC5)c(O)c4c3C2=O)NC(=O)/C(C)=C\C=C\[C@H](C)[C@H](O)[C@@H](C)[C@@H](O)[C@@H](C)[C@H](OC(C)=O)[C@@H]1C` [RIFAMPIN], the IC50 [1] was “Not Active”, the Ki [1] was “Not Active” and the IC50 [2] was “Not Active”. For the same compound, the Ki [2] was “Not Active”, the IC50 ([3]; read-out: IC50) was 2.95 µM and the IC50 [4] was “Not Active”. The IC50 [5] was “Not Active”, the Ki [5] was “Not Active” and the IC50 [6] was “Not Active”. For the same compound, the Ki [6] was “Not Active”, the IC50 [7] was “Not Active” and the Ki [7] was “Not Active”.
For `Nc1nc2ccc(OC(F)(F)F)cc2s1` [RILUZOLE], the IC50 [1] was “Not Active”, the Ki [1] was “Not Active” and the IC50 [2] was “Not Active”. For the same compound, the Ki [2] was “Not Active”, the IC50 ([3]; reticulocytes) was “Not Active” and the IC50 [4] was “Not Active”. For the same compound, the IC50 [5] was “Not Active”, the Ki [5] was “Not Active” and the IC50 [6] was “Not Active”. For the same compound, the Ki [6] was “Not Active”, the IC50 [7] was “Not Active” and the Ki [7] was “Not Active”.
For `Cc1nc2n(c(=O)c1CCN1CCC(c3noc4cc(F)ccc34)CC1)CCCC2` [RISPERIDONE], the IC50 ([3]; reticulocytes) was “Not Active” and the IC50 [4] was “Not Active”.
In the case of `C=CCC1(C(C)CCC)C(=O)NC(=O)NC1=O` (centres undefined) [SECOBARBITAL], the IC50 [1] is reported as “Not Active”, the Ki [1] is reported as “Not Active” and the IC50 [2] is reported as “Not Active”. The Ki [2] was “Not Active”, the IC50 ([3]; reticulocytes) was “Not Active” and the IC50 [4] was “Not Active”. For the same compound, the IC50 [5] was “Not Active”, the Ki [5] was “Not Active” and the IC50 [6] was “Not Active”. The Ki [6] was “Not Active”, the IC50 [7] was “Not Active” and the Ki [7] was “Not Active”.
In the case of `C[C@@H]1CN(c2c(F)c(N)c3c(=O)c(C(=O)O)cn(C4CC4)c3c2F)C[C@H](C)N1` [SPARFLOXACIN], the IC50 [1] is reported as “Not Active”, the Ki [1] is reported as “Not Active” and the IC50 [2] is reported as “Not Active”. The Ki [2] was “Not Active”, the IC50 ([3]; reticulocytes) was “Not Active” and the IC50 [4] was “Not Active”. For the same compound, the IC50 [5] was “Not Active”, the Ki [5] was “Not Active” and the IC50 [6] was “Not Active”. For the same compound, the Ki [6] was “Not Active”, the IC50 [7] was “Not Active” and the Ki [7] was “Not Active”.
With `Cc1noc(NS(=O)(=O)c2ccc(N)cc2)c1C` [SULFISOXAZOLE] the IC50 [1] was “Not Active”, the Ki [1] was “Not Active” and the IC50 [2] was “Not Active”. For the same compound, the Ki [2] was “Not Active”, the IC50 ([3]; reticulocytes) was “Not Active” and the IC50 [4] was “Not Active”. The IC50 [5] was “Not Active”, the Ki [5] was “Not Active” and the IC50 [6] was “Not Active”. The Ki [6] was “Not Active”, the IC50 [7] was “Not Active” and the Ki [7] was “Not Active”.
With `CC/C(=C(\c1ccccc1)c1ccc(OCCN(C)C)cc1)c1ccccc1` [TAMOXIFEN] the IC50 ([3]; reticulocytes) was “Not Active” and the IC50 [4] was “Not Active”.

— ChEMBL document CHEMBL1909046, “DrugMatrix in vitro pharmacology data”
